Each block holds one compound with its values, some of them ahead of it. Activity calls are given as the source filed them.
What was measured:
[1] = system: HEK293; assay: Binding affinity to Nav1.8 (unknown origin) expressed in HEK293 cells assessed as retention time by cell membrane chromatography analysis; format: cell membranes; details: Homo sapiens
[2] = organism: Homo sapiens; assay: Inhibition of Nav1.8 (unknown origin) at 10 uM under resting state by whole-cell patch clamp analysis relative to control
[3] = system: Mus musculus; assay: Analgesic activity in CFA-induced inflammatory pain mouse model assessed as increase in mechanical pain threshold at 10 mM, ip measured within 5 hrs by von frey test; format: functional, organism-based
[4] = system: Mus musculus; assay: Analgesic activity in CFA-induced inflammatory pain mouse model assessed as inhibition of mechanical hyperalgesia by measuring delta AUC at 10 mM, ip by von frey test; format: functional, organism-based
[5] = system: Mus musculus; assay: Analgesic activity in CFA-induced inflammatory pain mouse model assessed as effect on intensity of pain relief by measuring delta AUC at 10 mM, ip by von frey test; format: functional, organism-based
[6] = system: Mus musculus; assay: Analgesic activity in CFA-induced inflammatory pain mouse model assessed as increase in mechanical pain threshold at 10 mM, ip measured upto 5 hrs by von frey test; format: functional, organism-based
[7] = system: Mus musculus; assay: Analgesic activity in CFA-induced inflammatory pain mouse model assessed as effect on duration of pain relief by measuring delta AUC at 10 mM, ip by von frey test; format: functional, organism-based
[8] = system: Nav1.8 (SCN10A); assay: Inhibition of Nav1.8 (unknown origin) at 10 uM under half […] state by whole-cell patch clamp analysis relative to control; details: human

- inhibition [2]: 6.49%
- inhibition at 10 µM [8]: 11.1%
SMILES: Cc1ccccc1C1CC(=O)C2=C(C1)NC(=O)C(CC(=O)Nc1cccc(Cl)c1C)C2 (stereo not given)
- Retention time [1]: 5.76 min
- Activity [3]: Active
- Activity [4]: Active
- Activity [5]: Active
- Activity [6]: Active
- Activity [7]: Active

SMILES: CC1Oc2ccccc2CC1/C=C1/Oc2cc(OC(=O)c3ccc4c(c3)OCO4)ccc2C1=O (stereo not given)
- Retention time [1]: 0.4 min

SMILES: Cc1cc2oc(=O)cc(C)c2c(O)c1C1=NNC(c2ccc3c(c2)OCO3)C1 (stereo not given)
- Retention time [1]: 0.4 min

- inhibition [2]: 62.1%
SMILES: COc1cc(NC(=O)c2ccc(-c3ccc(Cl)cc3)o2)cc(OC)c1
- Retention time [1]: 120 min

SMILES: O=C(Cc1ccccc1)N/N=C/c1c2ccccc2cc2ccccc12
- Retention time [1]: 0.4 min

- inhibition [2]: 14.3%
- inhibition at 10 µM [8]: 63.8%
SMILES: O=S(=O)(NCC12CC3CC(CC(C3)C1)C2)c1cccc(S(=O)(=O)c2ccc(Cl)cc2)c1
- Retention time [1]: 56 min
- Activity [3]: Active
- Activity [4]: Active
- Activity [5]: Active
- Activity [6]: Active
- Activity [7]: Active

SMILES: O=C(Cc1cccc2ccccc12)NN1C(=O)C2C3C=CC(C3)C2C1=O (stereo not given)
- Retention time [1]: 1.9 min

SMILES: O=[N+]([O-])c1cccc(C2Oc3ccccc3C3CC(c4ccc(F)cc4)=NN32)c1 (stereo not given)
- Retention time [1]: 0.4 min

SMILES: Cc1ccc(CS(=O)(=O)c2cn(CC(=O)Nc3ccc(F)cc3F)c3ccccc23)cc1
- Retention time [1]: 14.7 min
- Activity [6]: Active

SMILES: Cc1cc(F)ccc1Oc1cc(C(F)(F)F)ccc1C(=O)Nc1cc[nH]c(=O)c1
- Retention time [1]: 8.56 min
- Activity [3]: inactive
- Activity [6]: Active

SMILES: Cc1ccc(C)c(Cn2cccc2CNC(=O)NC23CC4CC(CC(C4)C2)C3)c1
- Retention time [1]: 0.4 min

SMILES: CN1c2ccc(F)cc2C(C)(C)C12C=Cc1cc([N+](=O)[O-])ccc1S2 (stereo not given)
- Retention time [1]: 0.4 min

SMILES: Cc1cc(OCC(=O)Nc2ccc(C(C)(C)C)cc2)c2c3c(c(=O)oc2c1)CCC3
- Retention time [1]: 0.4 min

SMILES: COc1ccc(/C=N/NC(=O)NC23CC4CC(C2)CC(c2ccc(C)cc2)(C4)C3)cc1
- Retention time [1]: 0.4 min

SMILES: CCC1(C)Oc2ccc(NS(=O)(=O)c3ccc4c(c3)Cc3ccccc3-4)cc2O1 (stereo not given)
- Retention time [1]: 0.4 min

SMILES: COc1cccc(C2C3=C(CC4=C2C(=O)CC(C)(C)C4)CC(C)(C)CC3=O)c1OCC(=O)O
- Retention time [1]: 1.2 min

SMILES: O=S(=O)(NCC12CC3CC(CC(C3)C1)C2)c1ccc(Cl)c2ccccc12
- Retention time [1]: 0.4 min

From ChEMBL document CHEMBL5584254, “Identification of N-(((1S,3R,5S)-adamantan-1-yl)methyl)-3-((4-chlorophenyl)sulfonyl)benzenesulfonamide as novel Nav1.8 inhibitor with analgesic profile” (Bioorg Med Chem Lett, 2024)
